The compounds below were run against METTL3/METTL14 (Homo sapiens, UniProt Q86U44) (assay: METTL3-14 standard enzyme assay (3H-SAM flashplate)). Settings: Table 3; METTL3 biochemical assay.
Protocol: METTL3-14 Standard Enzyme Assay
Assays were performed in a 25 μl-volume in 384-well V-bottom polypropylene microplates (Greiner Bio-One, cat. No. 781280) at ambient temperature. Optimized 1× assay buffer was 20 mM HEPES pH 7.5, 50 mM KCl, 250 μM MgCl2, 1 mM DTT, 0.01% Tween, 0.01% BSG, 0.004 U/μl RNAseOUT (cat. No. 10777019, ThermoFisher Scientific, Waltham, MA). For compound screening METTL3/METTL14 (final concentration, f.c.=2.5 nM) was added using a Multidrop Combi (ThermoFisher Scientific, Waltham, MA) and preincubated for 5 min. Reactions were started by adding 3′ biotinylated RNA (UCUGGACUAAA-biotin) (f.c.=100 nM) and 3H-SAM (f.c.=100 nM) substrates. Reactions proceeded for 30 minutes and were quenched with excess non-radioactive SAM (f.c.=15 μM). The reactions were then transferred to streptavidin-coated flashplates and incubated for 2 hours at 25° C. Following two washing cycles with 0.1% Tween-20, the plates were sealed and read on a TopCount (PerkinElmer, Waltham, MA) plate-based scintillation counter. For determination of kinetic parameters, reaction times were optimized so that measurements were taken during the initial velocity phase of the reaction.

Sequence of METTL3/METTL14 (Q86U44 whole entry, species assumed): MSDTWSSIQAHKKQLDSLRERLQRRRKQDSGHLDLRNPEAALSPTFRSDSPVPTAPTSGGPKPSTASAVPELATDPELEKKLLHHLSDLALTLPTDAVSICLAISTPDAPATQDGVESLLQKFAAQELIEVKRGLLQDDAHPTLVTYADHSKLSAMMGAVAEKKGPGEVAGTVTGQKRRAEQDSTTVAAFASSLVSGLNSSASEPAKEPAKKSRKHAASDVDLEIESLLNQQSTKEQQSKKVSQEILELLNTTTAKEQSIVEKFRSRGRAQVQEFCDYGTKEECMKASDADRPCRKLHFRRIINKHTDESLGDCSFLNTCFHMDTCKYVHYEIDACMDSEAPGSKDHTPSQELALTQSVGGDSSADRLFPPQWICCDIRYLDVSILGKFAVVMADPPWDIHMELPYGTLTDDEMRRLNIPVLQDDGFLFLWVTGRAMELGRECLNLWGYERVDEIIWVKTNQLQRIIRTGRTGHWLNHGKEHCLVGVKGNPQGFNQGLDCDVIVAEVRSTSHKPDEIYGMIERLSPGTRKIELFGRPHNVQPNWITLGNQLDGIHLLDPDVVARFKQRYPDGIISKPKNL
Sequence of METTL3/METTL14 (Q9HCE5 whole entry partner, species assumed): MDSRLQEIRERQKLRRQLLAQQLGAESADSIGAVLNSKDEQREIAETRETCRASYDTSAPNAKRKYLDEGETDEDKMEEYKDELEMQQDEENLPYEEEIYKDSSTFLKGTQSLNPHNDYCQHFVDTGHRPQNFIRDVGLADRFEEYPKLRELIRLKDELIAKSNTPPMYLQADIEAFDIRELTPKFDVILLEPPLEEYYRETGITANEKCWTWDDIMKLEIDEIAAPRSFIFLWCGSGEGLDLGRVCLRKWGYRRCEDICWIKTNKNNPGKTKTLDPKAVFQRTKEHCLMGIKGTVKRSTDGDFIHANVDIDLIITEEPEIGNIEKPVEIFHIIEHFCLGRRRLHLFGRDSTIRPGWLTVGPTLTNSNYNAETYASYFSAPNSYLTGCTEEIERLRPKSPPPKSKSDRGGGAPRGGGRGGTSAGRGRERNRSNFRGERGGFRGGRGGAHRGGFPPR

Compared with Nc1ncnc2c1c(-n1cccn1)cn2[C@@H]1C[C@H](C(=O)Nc2ccc3ccc(N4CCC4)nc3c2)[C@@H](O)C1 [Compound I-14], Nc1ncnc2c1c(-n1cccn1)cn2[C@H]1C[C@H](O)[C@@H](C(=O)Nc2ccc3ccc(NC4CCC4)nc3c2)O1 [Compound I-16] is lower in IC50: 0.01 to 0.1 µM for the first, < 0.01 µM for the second.

Nc1ncnc2c1c(-n1cccn1)cn2[C@H]1C[C@H](O)[C@@H](C(=O)Nc2cc(NC3CCC3)ccn2)O1 [Compound I-17, (2S,3S,5R)-5-[4-amino-5-(1H-pyrazol-1-yl)-7H-pyrrolo[2,3-d]pyrimidin-7-yl]-N-[4-(cyclobutylamino)pyridin-2-yl]-3-hydroxyoxolane-2-carboxamide] was tested, and the IC50 was ≥ 1 µM.

Same assay, conditions: Table 4; METTL3 biochemical assay

Cn1ccc(-c2cn([C@@H]3O[C@H](C(=O)Nc4ccc(Br)c(Cl)c4)[C@@H](O)[C@H]3O)c3ncnc(N)c23)n1 [Compound I-63] and Cc1ccc(NC(=O)[C@H]2O[C@@H](n3cc(-c4ccn(C)n4)c4c(N)ncnc43)[C@H](O)[C@@H]2O)cc1Cl [Compound I-71] cannot be ordered by IC50: ≥ 1 µM for the first, ≥ 1 µM for the second.

Cn1ccc(-c2cn([C@@H]3O[C@H](C(=O)NCCN4CCNC4=O)[C@@H](O)[C@H]3O)c3ncnc(N)c23)n1 [Compound I-64] and Cn1ccc(-c2cn([C@@H]3O[C@H](C(=O)NCCN4CCOCC4)[C@@H](O)[C@H]3O)c3ncnc(N)c23)n1 [Compound I-65] cannot be ordered by IC50: ≥ 1 µM for the first, ≥ 1 µM for the second.

Cn1ccc(-c2cn([C@@H]3O[C@H](C(=O)Nc4ccc5ccccc5n4)[C@@H](O)[C@H]3O)c3ncnc(N)c23)n1 [Compound I-66] and Cn1ccc(-c2cn([C@@H]3O[C@H](C(=O)Nc4nccc5ccccc45)[C@@H](O)[C@H]3O)c3ncnc(N)c23)n1 [Compound I-78] cannot be ordered by IC50: ≥ 1 µM for the first, ≥ 1 µM for the second.

Cn1ccc(-c2cn([C@@H]3O[C@H](C(=O)Nc4cc(Cl)cc(Cl)c4)[C@@H](O)[C@H]3O)c3ncnc(N)c23)n1 [Compound I-67] and Cc1ccc(Cl)c(NC(=O)[C@H]2O[C@@H](n3cc(-c4ccn(C)n4)c4c(N)ncnc43)[C@H](O)[C@@H]2O)c1 [Compound I-72] cannot be ordered by IC50: ≥ 1 µM for the first, ≥ 1 µM for the second.

Cc1ccc2nc(NC(=O)[C@H]3O[C@@H](n4cc(-c5ccn(C)n5)c5c(N)ncnc54)[C@H](O)[C@@H]3O)sc2c1 [Compound I-68] and Cc1nsc(NC(=O)[C@H]2O[C@@H](n3cc(-c4ccn(C)n4)c4c(N)ncnc43)[C@H](O)[C@@H]2O)n1 [Compound I-83] cannot be ordered by IC50: ≥ 1 µM for the first, ≥ 1 µM for the second.

Cn1ccc(-c2cn([C@@H]3O[C@H](C(=O)Nc4cccc5cnccc45)[C@@H](O)[C@H]3O)c3ncnc(N)c23)n1 [Compound I-69] and Cn1ccc(-c2cn([C@@H]3O[C@H](C(=O)Nc4cnccn4)[C@@H](O)[C@H]3O)c3ncnc(N)c23)n1 [Compound I-91] cannot be ordered by IC50: ≥ 1 µM for the first, ≥ 1 µM for the second.

CC(C)c1nnc(NC(=O)[C@H]2O[C@@H](n3cc(-c4ccn(C)n4)c4c(N)ncnc43)[C@H](O)[C@@H]2O)s1 [Compound I-70] and Cn1ccc(-c2cn([C@@H]3O[C@H](C(=O)Nc4nccs4)[C@@H](O)[C@H]3O)c3ncnc(N)c23)n1 [Compound I-82] cannot be ordered by IC50: ≥ 1 µM for the first, ≥ 1 µM for the second.

CC(C)OCCNC(=O)[C@H]1O[C@@H](n2cc(-c3ccn(C)n3)c3c(N)ncnc32)[C@H](O)[C@@H]1O [Compound I-73] and CC(O)CNC(=O)[C@H]1O[C@@H](n2cc(-c3ccn(C)n3)c3c(N)ncnc32)[C@H](O)[C@@H]1O (stereo partly drawn) [Compound I-81] cannot be ordered by IC50: ≥ 1 µM for the first, ≥ 1 µM for the second.

Cn1ccc(-c2cn([C@@H]3O[C@H](C(=O)Nc4cccc(N5CCOCC5)c4)[C@@H](O)[C@H]3O)c3ncnc(N)c23)n1 [Compound I-74] and Cn1ccc(-c2cn([C@@H]3O[C@H](C(=O)Nc4cccc(C(F)(F)F)c4)[C@@H](O)[C@H]3O)c3ncnc(N)c23)n1 [Compound I-76] cannot be ordered by IC50: ≥ 1 µM for the first, ≥ 1 µM for the second.

Cc1noc(NC(=O)[C@H]2O[C@@H](n3cc(-c4ccn(C)n4)c4c(N)ncnc43)[C@H](O)[C@@H]2O)c1C [Compound I-75] and Cc1cc(NC(=O)[C@H]2O[C@@H](n3cc(-c4ccn(C)n4)c4c(N)ncnc43)[C@H](O)[C@@H]2O)n(C)n1 [Compound I-86] cannot be ordered by IC50: ≥ 1 µM for the first, ≥ 1 µM for the second.

Cc1cc(CNC(=O)[C@H]2O[C@@H](n3cc(-c4ccn(C)n4)c4c(N)ncnc43)[C@H](O)[C@@H]2O)ccc1F [Compound I-77] and Cn1ccc(-c2cn([C@@H]3O[C@H](C(=O)NCc4ccc(OC(F)(F)F)cc4)[C@@H](O)[C@H]3O)c3ncnc(N)c23)n1 [Compound I-84] cannot be ordered by IC50: ≥ 1 µM for the first, ≥ 1 µM for the second.

Cn1ccc(-c2cn([C@@H]3O[C@H](C(=O)Nc4ccc(-c5ccccc5)cn4)[C@@H](O)[C@H]3O)c3ncnc(N)c23)n1 [Compound I-79] and Cn1ccc(-c2cn([C@@H]3O[C@H](C(=O)Nc4ccc(-c5ccccc5)cc4)[C@@H](O)[C@H]3O)c3ncnc(N)c23)n1 [Compound I-98] cannot be ordered by IC50: ≥ 1 µM for the first, 0.1 to 1 µM for the second.

COCC(C)NC(=O)[C@H]1O[C@@H](n2cc(-c3ccn(C)n3)c3c(N)ncnc32)[C@H](O)[C@@H]1O (stereo partly drawn) [Compound I-80] and CC(CNC(=O)[C@H]1O[C@@H](n2cc(-c3ccn(C)n3)c3c(N)ncnc32)[C@H](O)[C@@H]1O)c1ccccc1 (stereo partly drawn) [Compound I-101] cannot be ordered by IC50: ≥ 1 µM for the first, 0.1 to 1 µM for the second.

CCc1cccc(NC(=O)[C@H]2O[C@@H](n3cc(-c4ccn(C)n4)c4c(N)ncnc43)[C@H](O)[C@@H]2O)n1 [Compound I-85] and Cc1cccnc1NC(=O)[C@H]1O[C@@H](n2cc(-c3ccn(C)n3)c3c(N)ncnc32)[C@H](O)[C@@H]1O [Compound I-93] cannot be ordered by IC50: ≥ 1 µM for the first, ≥ 1 µM for the second.

Cn1ccc(-c2cn([C@@H]3O[C@H](C(=O)N[C@H](CO)c4ccccc4)[C@@H](O)[C@H]3O)c3ncnc(N)c23)n1 [Compound I-87] and Cn1ccc(-c2cn([C@@H]3O[C@H](C(=O)N[C@@H](CO)c4ccccc4)[C@@H](O)[C@H]3O)c3ncnc(N)c23)n1 [Compound I-88] cannot be ordered by IC50: ≥ 1 µM for the first, ≥ 1 µM for the second.

Cn1ccc(-c2cn([C@@H]3O[C@H](C(=O)NCC4CCOC4)[C@@H](O)[C@H]3O)c3ncnc(N)c23)n1 (stereo partly drawn) [Compound I-89] and Cn1ccc(-c2cn([C@@H]3O[C@H](C(=O)NCCC4CCOCC4)[C@@H](O)[C@H]3O)c3ncnc(N)c23)n1 [Compound I-96] cannot be ordered by IC50: ≥ 1 µM for the first, 0.1 to 1 µM for the second.

CN(C)S(=O)(=O)c1cccc(NC(=O)[C@H]2O[C@@H](n3cc(-c4ccn(C)n4)c4c(N)ncnc43)[C@H](O)[C@@H]2O)c1 [Compound I-90] and Cc1ccc(C(N)=O)cc1NC(=O)[C@H]1O[C@@H](n2cc(-c3ccn(C)n3)c3c(N)ncnc32)[C@H](O)[C@@H]1O [Compound I-92] cannot be ordered by IC50: ≥ 1 µM for the first, ≥ 1 µM for the second.

Cn1ccc(-c2cn([C@@H]3O[C@H](C(=O)Nc4ccc5nsnc5c4)[C@@H](O)[C@H]3O)c3ncnc(N)c23)n1 [Compound I-94] and Cn1ccc(-c2cn([C@@H]3O[C@H](C(=O)Nc4ccc(Oc5ccccc5)cc4)[C@@H](O)[C@H]3O)c3ncnc(N)c23)n1 [Compound I-100] fall in the same range of IC50: 0.1 to 1 µM for the first, 0.1 to 1 µM for the second.

Cn1ccc(-c2cn([C@@H]3O[C@H](C(=O)NC4CCN(S(C)(=O)=O)CC4)[C@@H](O)[C@H]3O)c3ncnc(N)c23)n1 [Compound I-95] and Cn1ccc(-c2cn([C@@H]3O[C@H](C(=O)N4CCc5ccccc54)[C@@H](O)[C@H]3O)c3ncnc(N)c23)n1 [Compound I-99] fall in the same range of IC50: 0.1 to 1 µM for the first, 0.1 to 1 µM for the second.

COc1ccccc1CNC(=O)[C@H]1O[C@@H](n2cc(-c3ccn(C)n3)c3c(N)ncnc32)[C@H](O)[C@@H]1O [Compound I-97] was tested, and the IC50 was 0.1 to 1 µM.
